# Source: patent US5773413A, “Method of combating mammalian neoplasias, and lytic peptides therefor” (Demeter Biotechnologies, Ltd., priority 1995, dated 1998)
# Where a SMILES comes first, the peptide text is derived from it. [ ]: non-standard residue; d: D form. The star is where a group is joined. NMe2Phe = CN(C)[C@@H](Cc1ccccc1)C(=O)*; Lys(Me2) = CN(C)CCCC[C@H](N)C(=O)O
# Legend:
# [1] = ALD evaluation, iv administration in mouse; type: in vivo; details: for μg/dose (Miv), lethal dose / μmol Miv, lethal dose: iv administration in mouse; for Lethality, verification dosing / Lethality: mice; for Lethality, verification dosing: one animal previously exposed to 0.01 μM; for [μM] T = 0, lethal concentration: second value of the cell (single value for D5-F), assigned to mouse iv because it fits μmol Miv
# Protocol: (§1) In the following description, Riv=iv administration in rat, Rim=intramuscular administration in rat, Miv=iv administration in mouse, and Mim=intramuscular administration in mouse.
# (§2) Lethality data and clinical observations were collected during the ALD evalution of the peptides denoted D5-F, DP-1, DP-1m. The data presented below are complete for D5-F and DP-1.
# (§3) For all three compounds, two replicates were performed with both mice and rats. In the first replicate, the animals (one animal/dose) were exposed to a range of doses, 10.0, 5.0, 2.5, 1.0, 0.5, 0.25, 0.1, 0.05, 0.025, and 0.01 μM. For the second replicate, the lethal dose was diluted to produce an intermediate dose between the lethal dose and the subsequent nonlethal dose.
# Replicate 2: For D5F and DP1, the high dose was diluted to 7.5 μM for the second replicate. The doses administered were 7.5, 5.0, 1.0, 0.5, 0.25, 0.1, 0.05, 0.025, and 0.01 μM. D5F was lethal at 7.5 μM, whereas DP1 was not. DP1m was again not lethal to the mice over the treatment levels delivered.
# The effects of the highest dose (lethal--D5F and DP1, nonlethal--DP1 m) were verified by dosing one animal with the effective or highest no effect concentration used in Replicate 1. In the case of D5F, the dose of 7.5 μM was used to verify lethality observed in Replicate 2. The mice treated with these compounds were previously exposed to the lowest dose 0.01 μM. The doses were the following: D5F, 7.5 μM; DP1, 10.0 μM; and DP1m, 10.0 μM.
# [2] = ALD evaluation, iv administration in rat; type: in vivo; details: for [μM] T = 0, lethal concentration: first value of the cell, assigned to rat iv because it fits μmol Riv; for μg/dose (Riv), lethal dose / μmol Riv, lethal dose: iv administration in rat; for Lethality, verification dosing: 10.0 μM, one naive animal
# Protocol: as §1, §2, §3
# Replicate2: For all compounds, the high dose was diluted to 7.5 μM for the second replicate. The doses administered were 7.5, 5.0, 2.5, 1.0, 0.5. 0.25, and 0.1 μM. D5F, DP1, and DP1m were lethal at 7.5 μM and were not lethal at the lower doses.
# The lethality of the high dose was verified by dosing one animal with the lethal dose determined by Replicate 1. The rats used for the evaluation were remaining from the original shipment and were naive for treatment. The doses were the following: D5F, 10.0 μM; DP1, 10.0 μM; and DP1m, 10.0 μM.
# [3] = ALD evaluation, intramuscular administration in rat; type: in vivo
# Protocol: as §1, §2
# For D5F and DP1, two replicates were performed with rats. In the first replicate, the animals (one animal/dose) were exposed to a range of doses; 10.0, 1.0, 0.1, and 0.01 μM. The dose range used was smaller than that originally planned due to the availability of the compound to prepare an adequate amount of dosing solution.
# [4] = Solubility at the concentration required for im administration; type: physicochemical
# [5] = iv, Replicate 1, lower concentrations (5.0 to 0.01 μM)
# [6] = rats, iv, Replicate 1, lower concentrations
# [7] = rats, iv, Replicate 2, lower doses (5.0 to 0.1 μM)
Compound,"μg/dose (Miv), lethal dose [1]","μmol Miv, lethal dose [1]","Lethality ([1]; iv, Replicate 1, 10.0 μM)","Lethality [1, 5]","[μM] T = 0, lethal concentration [1]","[μM] T = 0, lethal concentration [2]","μg/dose (Riv), lethal dose [2]","μmol Riv, lethal dose [2]","Lethality, verification dosing ([2]; rats, iv)","Lethality ([2]; rats, iv, Replicate 1, 10.0 μM)","Lethality [2, 6]","Lethality ([2]; rats, iv, Replicate 2, 7.5 μM)","Lethality [2, 7]","μg/dose (Rim), lethal dose [3]","μmol Rim, lethal dose [3]","Lethality, verification dosing ([1]; iv, 10.0 μM)",other results
CC[C@H](C)[C@H](NC(=O)[C@H](C)NC(=O)[C@H](CCCNC(=N)N)NC(=O)[C@H](CC(C)C)NC(=O)CNC(=O)[C@@H](NC(=O)[C@H](C)NC(=O)[C@@H](N)Cc1ccccc1)C(C)C)C(=O)N[C@@H](CCCCN)C(=O)N[C@@H](CCCNC(=N)N)C(=O)N[C@@H](C)C(=O)N[C@@H](CC(C)C)C(=O)N[C@@H](CCCCN)C(=O)N[C@@H](CCCCN)C(=O)N[C@@H](CC(C)C)C(=O)N[C@@H](CCCNC(=N)N)C(=O)N[C@@H](CCCNC(=N)N)C(=O)NCC(=O)N[C@H](C(=O)N[C@@H](CCCNC(=N)N)C(=O)N[C@@H](CCCCN)C(=O)N[C@H](C(=O)N[C@@H](C)C(=O)N[C@@H](CCCCN)C(=O)N[C@@H](CC(=O)O)C(=O)N[C@@H](CC(C)C)C(=O)O)C(C)C)C(C)C [Peptide 16] (H-FAVGLRAIKRALKKLRRGVRKVAKDL-OH),541.62 μg/dose,0.15 µmol,lethal,No lethality,7.5 µM,7.5 µM,"5,416.19 μg/dose",1.5 µmol,dead within four hours,lethal,No lethality,lethal,not lethal,not lethal,not lethal,–,"Lethality, verification dosing ([1]; iv, 7.5 μM): dead within four hours; Lethality ([1]; iv, Replicate 2, 7.5 μM): lethal; Clinical Observations ([2]; rats, iv, 2.5 and 5.0 μM, ends of tails later sloughed off): discoloration of the tail"
CC(C)C[C@H](NC(=O)[C@H](C)NC(=O)[C@H](CCCCN)NC(=O)[C@H](CCCCN)NC(=O)[C@H](CC(C)C)NC(=O)[C@H](C)NC(=O)[C@H](CCCCN)NC(=O)[C@H](CCCCN)NC(=O)[C@H](CC(C)C)NC(=O)[C@H](CCCCN)NC(=O)[C@H](CCCCN)NC(=O)[C@H](CC(C)C)NC(=O)[C@H](C)NC(=O)[C@H](CCCCN)NC(=O)[C@H](CCCCN)NC(=O)[C@H](CC(C)C)NC(=O)[C@H](C)NC(=O)[C@H](CCCCN)NC(=O)[C@H](CC(C)C)NC(=O)[C@H](C)NC(=O)[C@H](CC(C)C)NC(=O)[C@H](C)NC(=O)[C@@H](N)Cc1ccccc1)C(=O)O [Peptide 19] (H-FALALKALKKALKKLKKALKKAL-OH),625.36 μg/dose,0.2 µmol,lethal,No lethality,10.0 µM,7.5 µM,"4,689.41 μg/dose",1.5 µmol,dead within four hours,lethal,No lethality,lethal,not lethal,not lethal,not lethal,dead within four hours,–
CC(C)C[C@H](NC(=O)[C@H](C)NC(=O)[C@H](CCCCN(C)C)NC(=O)[C@H](CCCCN(C)C)NC(=O)[C@H](CC(C)C)NC(=O)[C@H](C)NC(=O)[C@H](CCCCN(C)C)NC(=O)[C@H](CCCCN(C)C)NC(=O)[C@H](CC(C)C)NC(=O)[C@H](CCCCN(C)C)NC(=O)[C@H](CCCCN(C)C)NC(=O)[C@H](CC(C)C)NC(=O)[C@H](C)NC(=O)[C@H](CCCCN(C)C)NC(=O)[C@H](CCCCN(C)C)NC(=O)[C@H](CC(C)C)NC(=O)[C@H](C)NC(=O)[C@H](CCCCN(C)C)NC(=O)[C@H](CC(C)C)NC(=O)[C@H](C)NC(=O)[C@H](CC(C)C)NC(=O)[C@H](C)NC(=O)[C@H](Cc1ccccc1)N(C)C)C(=O)O [Peptide 20] (NMe2Phe-ALAL[Lys(Me2)]AL[Lys(Me2)][Lys(Me2)]AL[Lys(Me2)][Lys(Me2)]L[Lys(Me2)][Lys(Me2)]AL[Lys(Me2)][Lys(Me2)]AL-OH),685.36 μg/dose,0.2 µmol,not lethal,No lethality,10.0 µM,7.5 µM,"5,139.41 μg/dose",1.5 µmol,dead within four hours,lethal,No lethality,lethal,not lethal,not lethal,not lethal,dead within four hours,"Lethality ([1]; iv, Replicate 2, over the treatment levels delivered): not lethal; Clinical Observations ([1]; mouse, iv, 10 μM, end of tail later sloughed off): discoloration of the tail; solubility [4]: poor solubility"
CC[C@H](C)[C@H](NC(=O)[C@H](CCCCN)NC(=O)[C@H](CCCNC(=N)N)NC(=O)[C@H](C)NC(=O)[C@H](CC(C)C)NC(=O)[C@H](CCCCN)NC(=O)[C@H](CCCCN)NC(=O)[C@H](CC(C)C)NC(=O)[C@H](CCCNC(=N)N)NC(=O)[C@H](CCCNC(=N)N)NC(=O)CNC(=O)[C@@H](NC(=O)[C@H](CCCNC(=N)N)NC(=O)[C@H](CCCCN)NC(=O)[C@@H](NC(=O)[C@H](C)NC(=O)[C@H](CCCNC(=N)N)NC(=O)[C@H](CCCCN)NC(=O)[C@H](CCCNC(=N)N)NC(=O)[C@@H](N)CCCCN)C(C)C)C(C)C)C(=O)N[C@@H](C)C(=O)N[C@@H](CCCNC(=N)N)C(=O)N[C@@H](CC(C)C)C(=O)NCC(=O)N[C@H](C(=O)N[C@@H](C)C(=O)N[C@@H](Cc1ccccc1)C(=O)O)C(C)C [Peptide 13] (H-KRKRAVKRVGRRLKKLARKIARLGVAF-OH),158.72 μg/dose,0.05 µmol,–,–,2.5 µM,2.0 µM,"1,269.78 μg/dose",0.4 µmol,–,–,–,–,–,not lethal,not lethal,–,–
